Tests used:
[1] = microcentrifuge dissolution test (in vitro evaluation of concentration enhancement); assay type: physicochemical; conditions: for AUC: area under concentration-versus-time curve in PBS pH 6.5, 37° C.; for Concentration: dissolved torcetrapib in supernatant, 1000 μg/mL if all drug dissolved
Experimental: The solid composition of Example 1 was evaluated in vitro using a microcentrifuge dissolution test as follows. For this test, a sufficient amount of material was added to a microcentrifuge test tube so that the concentration of torcetrapib would have been 1000 μg/mL, if all of the drug had dissolved. The test was run in duplicate. The tubes were placed in a 37° C. temperature-controlled chamber, and 1.8 mL PBS at pH 6.5 and 290 mOsm/kg was added to each respective tube. The samples were quickly mixed using a vortex mixer for about 60 seconds. The samples were centrifuged at 13,000 G at 37° C. for 1 minute. The resulting supernatant solution was then sampled and diluted 1:6 (by volume) with methanol and then analyzed by HPLC. The contents of each tube were mixed on the vortex mixer and allowed to stand undisturbed at 37° C. until the next sample was taken. Samples were collected at 4, 10, 20, 40, 90, and 1200 minutes. Control 1 (C1) consisted of crystalline torcetrapib alone, and a sufficient amount of material was added so that the concentration of drug would have been 1000 μg/mL, if all of the drug had dissolved. The concentrations of drug obtained in these samples were used to determine the maximum drug concentration (“MDC90”) and the area under the concentration-versus-time curve (“AUC90”) during the initial ninety minutes.

[2] = aqueous solubility; assay type: physicochemical; conditions: aqueous medium; aqueous solubility determined at about 22° C. unless otherwise specified
Experimental: A second property of hydrophobic drugs is that they have low aqueous solubility. […] Extremely low aqueous solubility often leads to poor or slow absorption of the drug from the fluid of the gastrointestinal tract, when the drug is dosed orally in a conventional manner. For extremely low solubility drugs, absorption generally becomes progressively more difficult as the dose (mass of drug given orally) increases. Thus, a third property of hydrophobic drugs is a very high dose (in mg) to solubility (In mg/ml) ratio (ml). By “very high dose-to-solubility ratio” is meant that the dose-to-solubility ratio may have a value of at least 1000 ml, at least 5,000 ml, or even at least 10,000 ml. The dose-to-solubility ratio may be determined by dividing the dose (in mg) by the aqueous solubility (in mg/ml).
CETP inhibitors, in particular torcetrapib, and methods for preparing such compounds are disclosed in detail in U.S. Pat. Nos. 6,197,786 and 6,313,142, in PCT Application Nos. WO 01/40190A1, WO 02/088085A2, and WO 02/088069A2, the disclosures of which are herein incorporated by reference. Torcetrapib has an unusually low solubility in aqueous environments such as the lumenal fluid of the human GI tract. The aqueous solubility of torcetrapib is less than about 0.04 μg/ml. […]

[3] = during the initial ninety minutes, PBS pH 6.5, 37° C.

AUC ([1]; up to time 0 min): 0 µg·min/mL
AUC ([1]; up to time 4 min): <2 µg·min/mL
AUC ([1]; up to time 10 min): <8 µg·min/mL
AUC ([1]; up to time 20 min): <18 µg·min/mL
AUC ([1]; up to time 40 min): <38 µg·min/mL
AUC ([1]; up to time 90 min): <88 µg·min/mL
AUC ([1]; up to time 1200 min): <1,200 min*μg/mL
C1200 ([1]; concentration at 1200 minutes, PBS pH 6.5, 37° C.): <1 µg/mL
Concentration ([1]; PBS pH 6.5, 37° C., time 0 min): 0 ng/mL
Concentration ([1]; PBS pH 6.5, 37° C., time 4 min): <1000 ng/mL
Concentration ([1]; PBS pH 6.5, 37° C., time 10 min): <1000 ng/mL
Concentration ([1]; PBS pH 6.5, 37° C., time 20 min): <1000 ng/mL
Concentration ([1]; PBS pH 6.5, 37° C., time 40 min): <1000 ng/mL
Concentration ([1]; PBS pH 6.5, 37° C., time 90 min): <1000 ng/mL
Concentration ([1]; PBS pH 6.5, 37° C., time 1200 min): <1000 ng/mL
AUC90 (area under the concentration-versus-time curve) [1, 3]: <88 µg·min/mL
MDC90 (maximum drug concentration) [1, 3]: <1 µg/mL
solubility [2]: < 0.04 µg/mL
Structure (SMILES): CCOC(=O)N1c2ccc(C(F)(F)F)cc2[C@@H](N(Cc2cc(C(F)(F)F)cc(C(F)(F)F)c2)C(=O)OC)C[C@H]1CC [torcetrapib, [2R,4S]-4-[(3,5-bis-trifluoromethyl-benzyl)-methoxycarbonyl-amino]-2-ethyl-6-trifluoromethyl-3,4-dihydro-2H-quinoline-1-carboxylic acid ethyl ester]

From patent US20090169583A1, “Solid Adsorbates of Hydrophobic Drugs” (Pfizer, Inc., priority 2005, published 2009)
